Molecular target: T1, EHMT2 (G9a) (Homo sapiens, UniProt Q96KQ7)
T1 sequence (Q96KQ7 1-1210): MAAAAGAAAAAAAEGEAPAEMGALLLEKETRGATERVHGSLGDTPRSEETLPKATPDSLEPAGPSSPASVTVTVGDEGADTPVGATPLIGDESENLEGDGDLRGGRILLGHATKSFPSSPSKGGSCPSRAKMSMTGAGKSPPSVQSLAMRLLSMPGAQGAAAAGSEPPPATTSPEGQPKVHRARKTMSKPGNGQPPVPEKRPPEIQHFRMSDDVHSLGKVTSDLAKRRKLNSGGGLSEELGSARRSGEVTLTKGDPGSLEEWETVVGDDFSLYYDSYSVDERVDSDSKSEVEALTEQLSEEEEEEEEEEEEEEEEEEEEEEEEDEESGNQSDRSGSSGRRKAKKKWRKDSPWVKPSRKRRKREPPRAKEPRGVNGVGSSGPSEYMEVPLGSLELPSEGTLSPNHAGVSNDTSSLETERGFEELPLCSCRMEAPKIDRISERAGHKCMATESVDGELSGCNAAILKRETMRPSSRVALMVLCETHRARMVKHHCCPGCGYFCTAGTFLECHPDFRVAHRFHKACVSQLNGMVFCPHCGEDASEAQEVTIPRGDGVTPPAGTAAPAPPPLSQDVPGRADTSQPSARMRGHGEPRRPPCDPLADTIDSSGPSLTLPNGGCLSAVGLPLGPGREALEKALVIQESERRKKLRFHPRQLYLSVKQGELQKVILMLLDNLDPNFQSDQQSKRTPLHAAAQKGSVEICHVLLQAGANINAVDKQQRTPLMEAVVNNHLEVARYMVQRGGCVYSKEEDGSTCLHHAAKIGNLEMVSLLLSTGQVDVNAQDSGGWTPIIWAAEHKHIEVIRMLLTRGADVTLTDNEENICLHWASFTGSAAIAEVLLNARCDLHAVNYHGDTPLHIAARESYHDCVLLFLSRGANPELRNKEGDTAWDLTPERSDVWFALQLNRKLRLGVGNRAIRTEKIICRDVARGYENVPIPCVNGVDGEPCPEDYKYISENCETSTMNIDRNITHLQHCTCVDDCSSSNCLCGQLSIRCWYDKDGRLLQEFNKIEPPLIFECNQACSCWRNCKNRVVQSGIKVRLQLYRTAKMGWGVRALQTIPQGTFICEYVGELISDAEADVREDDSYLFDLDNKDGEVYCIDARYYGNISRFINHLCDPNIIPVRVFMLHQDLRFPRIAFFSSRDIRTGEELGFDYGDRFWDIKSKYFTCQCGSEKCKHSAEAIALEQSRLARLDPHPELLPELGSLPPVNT
Experiment: Competitive affinity-based chemoproteomics (UNC0965 matrix), MCF7 lysate
Type: binding
Design: endogenous in cells; host or cells: MCF7 whole cell lysate
Conditions: MCF7 lysates, 20 μM competitor
Procedure: A-366 and UNC0638 were purchased from Tocris. ARIAD and V-11-07-11 were purchased from Wuxi Apptec. UNC0737 and UNC0965 were synthesised as previously described.[1] Hemicholinium-3 and pyruvate kinase/lactic dehydrogenase enzymes were purchased from Sigma Aldrich. Aqueous and organic solvents were MS-grade and acquired by Sigma Aldrich unless stated otherwise.
MDA-MB-231, MCF7 and HEK293 cells were cultured in DMEM (Gibco, #11965092) supplemented with 10% FBS. K562 were cultured in IMDM (Gibco, #12440053) supplemented with 10% FBS. HepG2 were cultured in MEM (Gibco, #11095080) supplemented with 10 % FBS. […]
cultured in McCoy’s 5A (Sigma, M8403) supplemented with 10 % FBS and 1x GlutaMAX (Gibco, #35050061). Cells were maintained at 37 °C in a humidified 5% CO2 atmosphere. Peripheral blood mononuclear cells (PBMC) were isolated from healthy blood donors by density centrifugation. […]
Cell Titer-Glo® reagent was added to each well and total luminescence readings were performed within 15 min using the PHERAstar FSX (BMG Labtech). […]
Digested samples were analysed by nano-UPLC–MS/MS using a Dionex Ultimate 3000 nano UPLC fitted with an EASY spray column (75 μm × 500 mm, 2 μm particle size, Thermo Scientific), coupled to an Orbitrap Q Exactive instrument. […]

| SMILES | competition for EHMT2 (G9a) binding to affinity matrix |
| --- | --- |
| COc1cc2c(NC3CCN(C(C)C)CC3)nc(C3CCCCC3)nc2cc1OCCCN1CCCC1 [UNC0638] | strong enrichment and competition |
| COc1cc2c(N(C)C3CCN(C(C)C)CC3)nc(C3CCCCC3)nc2cc1OCCCN1CCCC1 [UNC0737] | did not ablate binding |

From paper PMC11811597, “Phenomics‐Based Discovery of Novel Orthosteric Choline Kinase Inhibitors” (Angewandte Chemie (International Ed. in English), 2025)
